# What was measured:
# [1] = system: Huh7 cells; assay: CytoTox-Glo membrane integrity assay in Huh7 cells; type: cell-based, human; conditions: four days
# Protocol: Toxicity of βTJ in Huh7 cells was determined with 3-(4,5-dimethylthiazol-2-yl)-5-β-carboxymethoxyphenyl)-2-(4-sulfophenyl)-2H-tetrazolium (MTS) assays that measures mitochondrial dysfunction employing the Cell Titre 96 aqueous nonradioactive cell proliferation assay (Promega), and with the CytoTox-Glo assay (Promega) that reflects cellular integrity. Huh7 and HepG2 cells (1×10^4) were plated in 96-well tissue culture plates, medium containing βTJ at the indicated concentrations was added the next day, the medium was replaced with fresh medium containing βTJ after two days, and after four days the MTS or CytoTox-Glo assays were conducted according to the manufacturer's instructions.
# [2] = system: HIV; conditions: cited from earlier work
# [3] = system: HBV genotype A; conditions: 10 μM; Tavis et al., 2013; cited from earlier work
# [4] = target: HCV RNA-directed RNA polymerase (Hepatitis C virus genotype 1a, UniProt P27958); assay: Primed homopolymeric RNA (poly-G) synthesis assay; type: biochemical; conditions: 10 μM
# Protocol: FIGS. 9A-C. Specificity of anti-HBV RNAseH compounds. (FIG. 9A) Inhibition of HBV genotype D RNAseH by irrelevant compounds at 10 μM in the oligonucleotide-directed RNAseH assay. Compound #4 was employed as an example HBV RNAseH inhibitor. […] The ability of compounds #5, 6 and 8 to inhibit production of poly-G by the HCV RNA-directed RNA polymerase was measured in a primed homopolymeric RNA synthesis assay (Cao, et al., 2011. The compounds were employed at 10 μM. DMSO, vehicle control. (FIG. 9C) Dose-responsiveness of HBV RNAseH inhibition. The effects of compounds #6, 8, and 12 on the RNAseH activity of HRHPL (genotype D) were measured at concentrations ranging from 0.5 to 50 μM. The dose-response profile is plotted for compound #12.
# HCV RNA-directed RNA polymerase, sequence (P27958 2421-3011): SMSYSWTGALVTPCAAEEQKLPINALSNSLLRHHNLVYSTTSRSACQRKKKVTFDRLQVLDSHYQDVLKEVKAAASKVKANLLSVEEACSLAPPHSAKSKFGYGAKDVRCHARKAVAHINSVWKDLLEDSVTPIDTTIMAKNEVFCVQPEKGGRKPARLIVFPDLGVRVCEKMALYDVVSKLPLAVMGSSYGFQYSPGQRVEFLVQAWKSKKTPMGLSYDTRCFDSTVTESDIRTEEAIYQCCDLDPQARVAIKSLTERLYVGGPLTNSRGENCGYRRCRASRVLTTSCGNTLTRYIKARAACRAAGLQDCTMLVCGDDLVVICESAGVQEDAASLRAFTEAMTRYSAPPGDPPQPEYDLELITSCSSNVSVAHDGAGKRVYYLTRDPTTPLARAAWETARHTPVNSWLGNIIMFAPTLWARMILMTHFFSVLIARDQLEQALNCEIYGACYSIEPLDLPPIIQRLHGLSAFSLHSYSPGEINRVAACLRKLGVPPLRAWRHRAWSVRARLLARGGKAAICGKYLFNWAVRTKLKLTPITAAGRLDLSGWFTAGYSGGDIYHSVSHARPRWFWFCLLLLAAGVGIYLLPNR
structure (smiles),measurement,setting,value
"CC(C)c1ccc(O)c(=O)c(O)c1 [Compound 46, beta-thujaplicinol]",CC50,[1],> 150 µM
same,Activity against HIV replication in cells,[2],inactive
"NCc1ccc(-c2ccc(Cc3cc(=O)n(O)c4ncccc34)cc2)cc1 [Compound 12, napthyridinone]",Block of viral replication in Huh7 cells,[3],~93%
Cc1c2cc(O)c(=O)cc-2oc2cc(O)c(O)cc12 [Compound 8],Inhibition of poly-G production by HCV RNA polymerase,[4],do not significantly inhibit
